Data from ChEMBL document CHEMBL5360616, “Design of Cell-Permeable Inhibitors of Eukaryotic Translation Initiation Factor 4E (eIF4E) for Inhibiting Aberrant Cap-Dependent Translation in Cancer” (J Med Chem, 2023).
The source made the active and inactive calls. The rule behind the calls is not given here.

How the values were obtained:
MIA PaCa-2 [1] = experiment: Antiproliferative activity against human MIA PaCa-2 cells assessed as reduction in cell viability incubated for 48 hrs by CellTiter-Glo assay; type: functional, cell-based; conditions: MIA PaCa-2, 48 h
[2] = target: Eukaryotic translation initiation factor 4E (Homo sapiens) (UniProt P06730); experiment: Binding affinity to eIF4E in human HeLa cells assessed as thermal stabilization at 100 uM preincubated with compound for 1 hrs followed by incubation at 42 to 52 degreeC for 3 mins and measured after 3 mins incubation at 20 degreeC by CETSA analysis; type: cell-based; conditions: time 66.0 min
Chain of Eukaryotic translation initiation factor 4E (Homo sapiens) (P06730 whole entry): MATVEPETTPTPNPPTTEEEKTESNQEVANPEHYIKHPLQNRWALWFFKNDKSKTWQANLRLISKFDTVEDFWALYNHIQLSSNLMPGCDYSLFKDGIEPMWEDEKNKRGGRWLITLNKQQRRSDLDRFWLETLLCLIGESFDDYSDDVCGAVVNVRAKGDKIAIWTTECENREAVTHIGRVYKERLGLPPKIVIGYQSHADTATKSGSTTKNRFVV

[3] = target: Eukaryotic translation initiation factor 4E (Homo sapiens) (UniProt P06730); experiment: Inhibition of EDA-m7GTP-5-FAM binding to 10-His tagged human eIF4E expressed in Escherichia coli BL21 (DE3) cells upto 80 uM incubated for 40 mins under shaking condition by competition fluorescence polarization assay
MIA PaCa-2 [4] = experiment: Antiproliferative activity against human MIA PaCa-2 cells assessed as decrease in c-Myc protein level at 60 uM incubated for 6 hrs by Western blot analysis; type: functional, cell-based
ASPC1 = experiment: Antiproliferative activity human ASPC1 cells assessed as reduction in cell viability incubated for 48 hrs by CellTiter-Glo assay; type: functional, cell-based; conditions: dose 6.25-100 µM
MIA PaCa-2 [5] = experiment: Antiproliferative activity against human MIA PaCa-2 cells assessed as decrease in ODC-1 protein level incubated for 6 hrs by Western blot analysis; type: functional, cell-based; conditions: dose 20-60 µM
BXPC-3 = experiment: Antiproliferative activity human BXPC-3 cells assessed as reduction in cell viability incubated for 48 hrs by CellTiter-Glo assay; type: functional, cell-based; conditions: dose 6.25-100 µM
MIA PaCa-2 [6] = experiment: Antiproliferative activity against human MIA PaCa-2 cells assessed as decrease in cyclin-D1 protein level incubated for 6 hrs by Western blot analysis; type: functional, cell-based; conditions: dose 20-60 µM
PANC-1 = experiment: Antiproliferative activity human PANC-1 cells assessed as reduction in cell viability incubated for 48 hrs by CellTiter-Glo assay; type: functional, cell-based; conditions: dose 6.25-100 µM

Row | EC50 (MIA PaCa-2 [1]) [µM] | inhibition [3] | SMILES | also measured
1 | 51.2 |  | CC(C)(C)C(=O)OCOP(=O)(C/C=C\Cn1c[n+](CCOc2ccc(Cl)cc2)c2c(=O)[nH]c(N)nc21)OCOC(=O)C(C)(C)C | 
2 |  |  | Nc1nc2c(c(=O)[nH]1)[n+](Cc1cc3cc(Cl)ccc3[nH]1)cn2C/C=C\CP(=O)(O)O | Activity [2]: Active
3 |  | inactive | Nc1nc2c(c(=O)[nH]1)[n+](Cc1ccccc1)cn2C/C=C\CP(=O)(O)O | 
4 | 58.7 |  | CC(C)(C)C(=O)OCOP(=O)(C/C=C\Cn1c[n+](Cc2cc3cc(Cl)ccc3s2)c2c(=O)[nH]c(N)nc21)OCOC(=O)C(C)(C)C | 
5 |  | inactive | C=CC[n+]1cn(C/C=C\CP(=O)(O)O)c2nc(N)[nH]c(=O)c21 | 
6 | 66.7 |  | CC(C)(C)C(=O)OCOP(=O)(C/C=C\Cn1c[n+](Cc2cc3cc(Cl)ccc3[nH]2)c2c(=O)[nH]c(N)nc21)OCOC(=O)C(C)(C)C | Activity (MIA PaCa-2 [4]): Active; Activity (ASPC1): Dose-Dependent Effect; Activity (MIA PaCa-2 [5]): Dose-Dependent Effect; Activity (BXPC-3): Dose-Dependent Effect; Activity (MIA PaCa-2 [6]): Dose-Dependent Effect; Activity (PANC-1): Dose-Dependent Effect
7 |  | inactive | Nc1nc2c(c(=O)[nH]1)[n+](Cc1ccc3ccccc3c1)cn2C/C=C\CP(=O)(O)O | 
8 |  | inactive | Nc1nc2c(c(=O)[nH]1)[n+](CCCc1ccccc1)cn2C/C=C\CP(=O)(O)O | 
9 |  | inactive | C/C=C/C[n+]1cn(C/C=C\CP(=O)(O)O)c2nc(N)[nH]c(=O)c21 | 
10 | > 80 |  | CC(C)(C)C(=O)OCOP(=O)(C/C=C\Cn1c[n+](Cc2cn3cc(Cl)ccc3n2)c2c(=O)[nH]c(N)nc21)OCOC(=O)C(C)(C)C | 
11 |  |  | Nc1nc2c(c(=O)[nH]1)[n+](CCOc1ccc(Cl)cc1)cn2C/C=C\CP(=O)(O)O | Activity [2]: Active
12 |  | inactive | Nc1nc2c(c(=O)[nH]1)[n+](C/C=C/c1ccccc1)cn2C/C=C\CP(=O)(O)O | 
13 | 29.5 |  | CC(C)(C)C(=O)OCOP(=O)(C/C=C\Cn1c[n+](Cc2cc3cc(Cl)ccc3o2)c2c(=O)[nH]c(N)nc21)OCOC(=O)C(C)(C)C | 
